The source of these data is paper PMC4109680, “Identification and Preclinical Pharmacology of the γ-Secretase Modulator BMS-869780” (International Journal of Alzheimer's Disease, 2014).

In one data set the test system is mNotch1ΔE. The data set is described as follows: Notch signaling CBF1-luciferase reporter assay in HeLa cells transfected with mNotch1ΔE. Format: cell-based. To be noted: for IC50: HeLa, treated overnight; for mNotch1ΔE/Aβ1-42: ratio of IC50 values. The method, then:
(§1) Inhibition of Notch signaling in cultured cells using a mouse-derived truncated Notch1 transgene, mNotch-ΔE [67], has been described in detail previously. Western blots for mNotchΔ1865 and NICD using 9E10 anti-c-myc monoclonal were carried out as previously described.
(§2) The effect of BMS-869780 on Notch processing was evaluated using transcriptional reporter assays and western blotting of NICD levels. HeLa cell cultures were transfected with mNotch1ΔE and CBF1-luciferase reporter constructs and treated with BMS-869780. In most replicates of this experiment, inhibition of luciferase reporter occurred with IC50 > 10 μM. […] To further evaluate the effect of BMS-869780 on Notch processing, western blots of cell cultures were carried out using mNotch1Δ1865, a truncated version of mNotch1ΔE that facilitates separation of NICD product from mNotch1 substrate on western blots. HeLa cell cultures were transfected with mNotch1Δ1865 and treated overnight with compounds before western blotting. […] Furthermore, the GSIs caused an increased level of mNotch1Δ1865 substrate, most likely due to inhibition of its turnover by γ-secretase, as previously noted by Blat et al..
(§3) (b) HeLa cell cultures were transfected with mNotchΔ1865, treated with compounds overnight, and cell extracts were evaluated by western blot using anti-c-myc-HRP conjugate. Lanes 1 and 9: DMSO (0.1%) vehicle. Lane 2: BMS-299897 at 1 μM. Lane 3: BMS-433796 at 0.3 μM. Lanes 4–8: BMS-869780 at 0.1, 0.3, 1, 3, and 10 μM, respectively.

The test system of another data set is Aβ1-40 (H4-APPsw). The data set is described as follows: Aβ1-40 time-resolved fluorescence immunoassay in H4-APPsw cell cultures. It is filed as cell-based, human. The conditions noted are these: for IC50: Homo sapiens, H4-APPsw cultures treated overnight. The method, then:
H4-APPsw cell cultures were maintained on Dulbecco's modified Eagle's medium (DMEM) supplemented with L-glutamine (2 mM), fetal bovine serum (10%), and G418 (100 μg/mL). […] Aβ1-42 and Aβ1-40 assays, and Notch inhibition assays, were carried out as described previously. Mouse embryonic fibroblasts deficient in PS1 and PS2 (MEF dKO) were passaged twice per week in DMEM/F-12 medium, consisting of a 1 : 1 mixture of DMEM and F-12 nutrient mixture supplemented with 10% fetal bovine serum, penicillin, and streptomycin. For expression of human presenilin-1 in MEF dKO cells, the full length human presenilin-1 cDNA open reading frame was cloned between the BamHI and XhoI sites of the vector pcDNA5/FRT (Invitrogen), placing presenilin-1 expression under the control of the CMV promoter. The M146V mutated allele was introduced into the presenilin-1 expression construct by polymerase chain reaction using the oligonucleotide primers 5′-[…]-3′ and 5′-[…]-3 (QuikChange kit, Invitrogen). MEF dKO cultures were cotransfected with DNA constructs expressing APP-CTF, encoding the C-terminal 99 amino acids of APP [61] and either the human presenilin-1 or presenilin-1 M146V allele. Transfected cultures were incubated overnight at 37°C in 5% CO2 atmosphere and then harvested, resuspended in DMEM/F-12 medium, dispensed into 96-well culture plates, and incubated for 6 hours at 37°C in 5% CO2 atmosphere. Culture medium was then replaced with Ultraculture serum free medium (Lonza, Rockland, ME) with or without compounds at a range of concentrations and incubated overnight.
IC50 determinations for Aβ1-42 and Aβ1-40 in H4-APPsw cultures in 384-well format were determined using homogeneous time-resolved fluorescence immunoassays as previously described. The principle of these assays is illustrated in Figures 1(c) and 1(d). In other experiments using H4-APPsw cultures, Aβ was quantified by ELISA; for Aβ1-42 the combination of monoclonal antibodies was 26D6 and 565-HRP; for Aβ1-40 it was TSD and 26D6-HRP, and for Aβ1-x it was 4G8 and 26D6-HRP. In some experiments a novel 4-plex Aβ electrochemiluminescence immunoassay was used (Mesoscale Discovery catalog number N45ZA-1). Briefly, the 4-plex was carried out in 96-well format, with 4 separate spots of capture antibodies in each well. […] For Aβ in transiently transfected PS1/PS2 dKO fibroblasts, Aβ1-42 was quantified using an ELISA kit (WACO), and Aβ1-40 was quantified by ELISA as described above for H4-APPsw cultures. […] For the rat and mouse experiments illustrated in Figures 7 and 8, brain samples were prepared by solid phase extraction, and endogenous rat brain Aβ1-42 and Aβ1-40 were quantified by ELISA as previously described for wild type mice. […]

The next data set deals with mNotch1Δ1865. The data set is described as follows: Western blot of NICD and mNotch1Δ1865 in transfected HeLa cell cultures. Format: cell-based. Here is the method: as §1, §2, §3

SMILES strings stand for the structures.

For `C[C@H](c1ccc(F)cc1CCCC(=O)O)N(c1cc(F)ccc1F)S(=O)(=O)c1ccc(Cl)cc1` [BMS-299897, reference compound], the “Notch/Aβ1-42 IC50 ratios” value with mNotch1ΔE (GSIs) was 723. Also, in the data set on mNotch1ΔE, the IC50 was found to be 340 nM and the mNotch1ΔE/Aβ1-42 turned out to be 723x. Moreover, the half-maximal inhibitory concentration (IC50) with Aβ1-40 (H4-APPsw) stood at 1.3 nM. Besides, in the data set with mNotch1Δ1865 (BMS-299897 at 1 μM, BMS-433796 at 0.3 μM), the NICD levels result is “greatly reduced NICD”.
Turning to `COc1cc(Nc2nc3n(n2)CCCC[C@H]3c2ccc(F)cc2)ccc1-n1cnc(Cl)c1` [BMS-869780], in the data set on mNotch1ΔE, the IC50 was more than 10000 nM and the mNotch1ΔE/Aβ1-42 is recorded as more than 1785x. Besides, in the data set with mNotch1ΔE (based on IC50 >10 μM for Notch), the “ratio of Notch to Aβ1-42 IC50s” value is more than 1785 fold. Moreover, the “shift in IC50 values between Aβ1-42 and Aβ1-40” value in the data set with Aβ1-40 (H4-APPsw) (H4-APPsw) worked out at 4 fold. The IC50 in the data set with Aβ1-40 (H4-APPsw) came out at 24.1 nM. Also, in the data set with mNotch1Δ1865 (10 μM), the mNotch1Δ1865 substrate levels entry was “did not increase mNotch1Δ1865 levels”. In addition, the cell observation result with mNotch1Δ1865 (10 μM, HeLa cultures) was “detached and dead cells”. In addition, the NICD levels result in the data set on mNotch1Δ1865 (concentrations up to 3 μM) is listed as “no effect on NICD levels”.
